Data taken from paper PMC12055641, “The Study of Antistaphylococcal Potential of Omiganan and Retro-Omiganan Under Flow Conditions” (Probiotics and Antimicrobial Proteins, 2024).
No end group written: not given here.

Key:
S. aureus ATCC 6538 = conditions: ATCC 6538, reference strain
[1] = tested on: human keratinocytes (HaCaT); assay type: cell-based; conditions: 24 h
Experimental: To evaluate the cytotoxicity of the peptides (IC50), the classic MTT assay on 96-well plates was performed for human keratinocytes (HaCaT) which were acquired from the ATCC. The assay utilizes colorimetric determination of the cell metabolic activity, and the color intensity reflects the number of live cells that can be measured spectrophotometrically. […] DMSO was added to the control cells at a final concentration of 1.0% (v/v), which was related to the maximum concentration of the solvent compounds used in the experiment. After 24 h of incubation at 37 °C (humidified 5% CO2 incubator) with the peptides, a medium containing 1 mg/mL of MTT was added to the wells up to a final concentration of 0.5 mg/mL. Subsequently, the plates were incubated at 37 °C for 4 h. Then, the medium was aspirated, and the formazan product was solubilized with DMSO. The background absorbance at 630 nm was subtracted from that at 570 nm for each well (Epoch, BioTek Instruments, USA). Six replicates were conducted for each concentration. All experiments were repeated at least twice and the resulting IC50 values were calculated with GraFit 7 software (v. 7.0, Erithacus, Berkley, CA, USA).

[2] = tested on: S. aureus ATCC 6538 biofilm; conditions: ATCC 6538, reference strain
[3] = tested on: biofilm of reference and clinical strains of staphylococci (S. aureus); conditions: for mean MBEC (initial values) / mean MBEC (corrected values) / mean MBIC (corrected values): 24 h; for mean MBIC (initial values): average over 14 strains, polystyrene 96-well plates, not corrected; for mean MBIC (corrected values): biofilm of reference and clinical strains of staphylococci
Source text: (§1) Clinical S. aureus strains were collected from patients with atopic dermatitis during their visits to the Outpatient Clinic and hospitalization in the Department of Dermatology, Venereology and Allergology at Medical University of Gdańsk (following the approval from the ethics committee, Approval Number NKBBN/242–477/2014). Reference strains of S. aureus ATCC 25923, S. aureus ATCC 33591, S. aureus ATCC 9144, and S. aureus ATCC 12598 were obtained from the American Type Culture Collection. All the strains were stored at − 80 °C in Roti®-Store cryo vials (Carl Roth GmbH, Karlsruhe, Germany) and before the tests were transferred into fresh Mueller–Hinton Medium (BioMaxima, Lublin, Poland) and incubated for 24 h at 37 °C. Subsequently, each bacterial inoculum was seeded on Mueller–Hinton agar plates (BioMaxima) and incubated again for 24 h. The cultures prepared in this way were used in further antimicrobial assays. Minimum inhibitory concentrations (MICs) were determined according to the Clinical and Laboratory Standards Institute recommendations. […] The experiments were conducted on 96-well microtiter plates, with a final volume of 100 μL. Additionally, in the case of daptomycin, the medium was supplemented with Ca^2+ (50 mg/L). Cell densities were adjusted spectrophotometrically (Multiskan™ GO Microplate Spectrophotometer, Thermo Scientific) at 600 nm. The MICs were taken as the lowest drug concentration at which a visible growth of the microorganisms was inhibited. Minimum biofilm eliminating concentrations (MBECs) were determined on 96-well flat-bottomed microtiter polystyrene plates with resazurin (7-hydroxy-3H-phenoxazin-3-one 10-oxide sodium salt) as a cell viability reagent. To do this, the plates were filled with 100 μL of the initial inoculums of bacteria (0.5 × 10^7 CFU/mL) in the Mueller–Hinton broth and incubated for 24 h at 37 °C. […] After 24 h of incubation, 20 μL of resazurin (4 mg/mL) was added to each well and the MBEC values were read. Minimum biofilm inhibitory concentrations (MBICs) were also determined on 96-well flat-bottomed microtiter polystyrene plates as described previously. To do this, 50 μL of the compounds in the concentration range, diluted MHB, were prepared. Subsequently, the 50 μL of the staphylococcal inoculums were added to reach the same density of bacteria as that in the MBEC assay. After 24 h of incubation at 37 °C, the wells were rinsed three times with PBS and the fresh medium (100 μL) with resazurin (0.6 mg/mL) was added. Then, after 1 h of incubation, MBICs were read. […] All experiments were conducted in triplicate.

[4] = tested on: S. aureus ATCC 33591 (MRSA); conditions: ATCC 33591, 24 h
Source text: as §1

S. aureus ATCC 9144 = conditions: ATCC 9144, reference strain
Source text: as §1

[5] = tested on: S. aureus clinical strain 005S biofilm
Source text: as §1

[6] = tested on: S. aureus clinical strain 043SC (MRSA) biofilm; conditions: clinical strain 043SC biofilm, 24 h
Source text: as §1

S. aureus ATCC 12598 = conditions: ATCC 12598, reference strain
Source text: as §1

[7] = tested on: S. aureus clinical strain 051N (MRSA); conditions: 24 h
Source text: as §1

[8] = tested on: S. aureus clinical strain 060S biofilm
Source text: as §1

[9] = tested on: S. aureus clinical strain 060S
Source text: as §1

[10] = tested on: S. aureus ATCC 12598 biofilm; conditions: ATCC 12598, reference strain
Source text: as §1

[11] = tested on: S. aureus ATCC 33591 (MRSA) biofilm; conditions: ATCC 33591, 24 h
Source text: as §1

[12] = tested on: S. aureus clinical strain 004N (MRSA); conditions: 24 h
Source text: as §1

[13] = tested on: S. aureus clinical strain 051N (MRSA) biofilm; conditions: clinical strain 051N biofilm, 24 h
Source text: as §1

[14] = tested on: S. aureus clinical strain 015N (MRSA); conditions: 24 h
Source text: as §1

[15] = tested on: S. aureus ATCC 9144 biofilm; conditions: ATCC 9144, reference strain
Source text: as §1

[16] = tested on: S. aureus clinical strain 015N (MRSA) biofilm; conditions: clinical strain 015N biofilm, 24 h
Source text: as §1

[17] = tested on: S. aureus ATCC 25923 biofilm; conditions: ATCC 25923, reference strain
Source text: as §1

S. aureus ATCC 25923 = conditions: ATCC 25923, reference strain
Source text: as §1

[18] = tested on: S. aureus clinical strain 031S biofilm
Source text: as §1

[19] = tested on: S. aureus clinical strain 043SC (MRSA); conditions: 24 h
Source text: as §1

[20] = tested on: reference and clinical strains of staphylococci (S. aureus); conditions: 24 h
Source text: as §1

[21] = tested on: S. aureus clinical strain 009S biofilm
Source text: as §1

[22] = tested on: S. aureus clinical strain 009S
Source text: as §1

[23] = tested on: S. aureus clinical strain 005S
Source text: as §1

[24] = tested on: S. aureus clinical strain 030N biofilm
Source text: as §1

[25] = tested on: S. aureus clinical strain 031S
Source text: as §1

[26] = tested on: S. aureus clinical strain 004N (MRSA) biofilm; conditions: clinical strain 004N biofilm, 24 h
Source text: as §1

[27] = tested on: S. aureus clinical strain 030N
Source text: as §1

[28] = tested on: S. aureus ATCC 6538 biofilm; conditions: ATCC 6538, reference strain; remark: listed apart in the source

ILRWPWWPWRRK-NH2 [Omiganan AcO^−]
MIC (S. aureus ATCC 6538): 8 µg/mL
IC50 [1]: 73.72 µg/mL
MBEC [2]: 64 µg/mL
mean MBEC (initial values) [3]: 38.86 µg/mL
mean MBIC (initial values) [3]: 14.54 µg/mL
MIC [4]: 16 µg/mL
MIC (S. aureus ATCC 9144): 4 µg/mL
MBEC [5]: 16 µg/mL
MBIC [5]: 1 µg/mL
MBEC [6]: 16 µg/mL
MBIC [6]: 16 µg/mL
MIC (S. aureus ATCC 12598): 8 µg/mL
MIC [7]: 8 µg/mL
MBEC [8]: 16 µg/mL
MBIC [8]: 1 µg/mL
MIC [9]: 1 µg/mL
MBEC [10]: 32 µg/mL
MBIC [10]: 16 µg/mL
MBEC [11]: 64 µg/mL
MBIC [11]: 32 µg/mL
MIC [12]: 8 µg/mL
MBEC [13]: 64 µg/mL
MBIC [13]: 16 µg/mL
MIC [14]: 8 µg/mL
MBEC [15]: 16 µg/mL
MBIC [15]: 16 µg/mL
MBEC [16]: 32 µg/mL
MBIC [16]: 16 µg/mL
MBEC [17]: 128 µg/mL
MBIC [17]: 32 µg/mL
MIC (S. aureus ATCC 25923): 16 µg/mL
MBEC [18]: 16 µg/mL
MIC [19]: 8 µg/mL
mean MIC (initial values) [20]: 6.82 µg/mL
MBEC [21]: 16 µg/mL
MBIC [21]: 1 µg/mL
MIC [22]: 0.5 µg/mL
MIC [23]: 1 µg/mL
MBEC [24]: 32 µg/mL
MBIC [24]: 16 µg/mL
MIC [25]: 1 µg/mL
MBEC [26]: 32 µg/mL
MBIC [26]: 8 µg/mL
MIC [27]: 8 µg/mL
MBIC [28]: 32 µg/mL

ILRWPWWPWRRK-NH2 [Omiganan Cl^−]
MIC (S. aureus ATCC 6538): 8 µg/mL
IC50 [1]: 63.99 µg/mL
MBEC [2]: 32 µg/mL
mean MBEC (corrected values) [3]: 38.86 µg/mL
mean MBEC (initial values) [3]: 45.71 µg/mL
mean MBIC (initial values) [3]: 17.46 µg/mL
mean MBIC (corrected values) [3]: 14.84 µg/mL
MIC [4]: 16 µg/mL
MIC (S. aureus ATCC 9144): 4 µg/mL
MBEC [5]: 32 µg/mL
MBIC [5]: 1 µg/mL
MBEC [6]: 32 µg/mL
MBIC [6]: 16 µg/mL
MIC (S. aureus ATCC 12598): 8 µg/mL
MIC [7]: 8 µg/mL
MBEC [8]: 16 µg/mL
MBIC [8]: 2 µg/mL
MIC [9]: 1 µg/mL
MBEC [10]: 64 µg/mL
MBIC [10]: 32 µg/mL
MBEC [11]: 64 µg/mL
MBIC [11]: 32 µg/mL
MIC [12]: 8 µg/mL
MBEC [13]: 64 µg/mL
MBIC [13]: 32 µg/mL
MIC [14]: 16 µg/mL
MBEC [15]: 32 µg/mL
MBIC [15]: 16 µg/mL
MBEC [16]: 64 µg/mL
MBIC [16]: 16 µg/mL
MBEC [17]: 64 µg/mL
MBIC [17]: 32 µg/mL
MIC (S. aureus ATCC 25923): 16 µg/mL
MBEC [18]: 16 µg/mL
MIC [19]: 8 µg/mL
mean MIC (corrected values) [20]: 6.77 µg/mL
mean MIC (initial values) [20]: 7.96 µg/mL
MBEC [21]: 32 µg/mL
MBIC [21]: 1 µg/mL
MIC [22]: 0.5 µg/mL
MIC [23]: 1 µg/mL
MBEC [24]: 64 µg/mL
MBIC [24]: 16 µg/mL
MIC [25]: 1 µg/mL
MBEC [26]: 64 µg/mL
MBIC [26]: 16 µg/mL
MIC [27]: 16 µg/mL
MBIC [28]: 32 µg/mL

ILRWPWWPWRRK-NH2 [Omiganan TFA^−]
MIC (S. aureus ATCC 6538): 4 µg/mL
IC50 [1]: 77.10 µg/mL
MBEC [2]: 32 µg/mL
mean MBEC (corrected values) [3]: 42.29 µg/mL
mean MBEC (initial values) [3]: 42.29 µg/mL
mean MBIC (initial values) [3]: 17.54 µg/mL
mean MBIC (corrected values) [3]: 17.54 µg/mL
MIC [4]: 16 µg/mL
MIC (S. aureus ATCC 9144): 4 µg/mL
MBEC [5]: 16 µg/mL
MBIC [5]: 2 µg/mL
MBEC [6]: 32 µg/mL
MBIC [6]: 16 µg/mL
MIC (S. aureus ATCC 12598): 8 µg/mL
MIC [7]: 16 µg/mL
MBEC [8]: 16 µg/mL
MBIC [8]: 2 µg/mL
MIC [9]: 2 µg/mL
MBEC [10]: 32 µg/mL
MBIC [10]: 32 µg/mL
MBEC [11]: 32 µg/mL
MBIC [11]: 32 µg/mL
MIC [12]: 8 µg/mL
MBEC [13]: 64 µg/mL
MBIC [13]: 32 µg/mL
MIC [14]: 16 µg/mL
MBEC [15]: 32 µg/mL
MBIC [15]: 16 µg/mL
MBEC [16]: 64 µg/mL
MBIC [16]: 16 µg/mL
MBEC [17]: 128 µg/mL
MBIC [17]: 32 µg/mL
MIC (S. aureus ATCC 25923): 16 µg/mL
MBEC [18]: 16 µg/mL
MIC [19]: 8 µg/mL
mean MIC (corrected values) [20]: 7.75 µg/mL
mean MIC (initial values) [20]: 7.75 µg/mL
MBEC [21]: 32 µg/mL
MBIC [21]: 1 µg/mL
MIC [22]: 0.5 µg/mL
MIC [23]: 1 µg/mL
MBEC [24]: 32 µg/mL
MBIC [24]: 16 µg/mL
MIC [25]: 1 µg/mL
MBEC [26]: 64 µg/mL
MBIC [26]: 16 µg/mL
MIC [27]: 8 µg/mL
MBIC [28]: 32 µg/mL
